{"source": "patent US8906898B1", "about": "“Solid forms of ceftolozane” (Calixa Therapeutics, Inc., priority 2013, dated 2014)", "key": {"[1]": {"assay": "Stability of HPLC sample solution in refrigerated autosampler", "format": "physicochemical", "conditions": "1 mg/mL in 50 mM sodium perchlorate monohydrate, pH 4.00; 4±2° C.", "procedure": "(§1) Ceftolozane sulfate samples are prepared at a concentration of 1 mg/mL in diluent (50 mM sodium perchlorate monohydrate, pH 4.00). The system suitability standard (SST) is prepared at a concentration of 1 mg/mL of ceftolozane sulfate containing specified impurities in diluent (50 mM sodium perchlorate monohydrate, pH 4.00). Ceftolozane samples and SST are stored in a refrigerated autosampler tray at 4±2° C. and the samples are only stable for 5 hours at this condition."}, "[2]": {"assay": "Comparative ceftolozane solvent stability test (purity by HPLC over 6 days)", "format": "physicochemical", "from_the_text": "This stability study was to evaluate stability and purity of ceftolozane sulfate in different solvent systems.\nSample 1 was a solvent system used to prepare crystalline ceftolozane sulfate from a mixture of isopropanol and water, as described in Example 2b (in the absence of ethanol). Sample 2 was solvent system used to obtain crystalline ceftolozane sulfate prepared according to the procedure of U.S. Pat. No. 7,129,232, wherein the crystals were precipitated from a mixture of ethanol and water.\nSample 1 and sample 2 were maintained for 6 days (as described in Example 2a, with continuous stirring). The purity of ceftolozane in the samples in each solvent system was measured by HPLC at day 0, day 3, and day 6.\nas §1\nEach sample is prepared in singlet and injected twice. Only impurities >LOD (0.008% Area) are integrated. The peak area percentage for each impurity >LOD is taken directly from the chromatogram. The mean % area of each peak is calculated and the absolute difference of any peak in the two replicates cannot be >0.030%. The purity and related substances are determined based on relative area % of each peak with respect to the total peak area of the sample. The total impurities are the sum of the individual impurities >LOD."}, "[3]": {"assay": "Ceftolozane precipitation time as function of solution concentration (visual assessment)", "format": "physicochemical", "conditions": "pH 6.9, 2 to 8° C.", "procedure": "Sterile ceftolozane compositions suitable for combination with tazobactam to form a pharmaceutical composition are prepared as a lyophilized powder from the ceftolozane sulfate comprising solid Form 2 by compounding the drug substance with excipients into an aqueous solution, aseptically filtering the solution, lyophilizing the solution, then grinding, sieving and packaging the sterile lyophilized powder. The physical stability of the bulk solution at varying concentrations was examined and concentrations up to 150 mg ceftolozane free base/g solution were found suitable. All the registration batches were prepared using 150 mg/g ceftolozane concentration in the compounding solution and this concentration is proposed for commercial manufacturing. The resulting ceftolozane composition solubility was assessed in a concentration range proposed for manufacturing, in the presence of excipients intended for use in the ceftolozane formulation for use in the pharmaceutical composition. […] Samples were adjusted to pH 6.9, held at 2 to 8° C., and visually assessed for any precipitation."}, "[4]": {"assay": "Water content by Karl Fischer volumetric titration with Stromboli oven", "format": "physicochemical", "conditions": "samples equilibrated at 130° C., mean of triplicate", "procedure": "Water content of crystalline ceftolozane sulfate (prepared according to Example 2a as Form 1) was determined using a Mettler Toledo Karl Fischer volumetric titrator V30 that was connected to a Mettler Toledo Stromboli oven sample changer. AquaStar CombiTitrant 5 (EMD; Cat. No. 1.88005.1045; Lot No. 51096) was used as the titrant and the AquaStar Combi-Methanol (EMD; Cat. No 1.88009.1045; Lot No 53046) was used as the solvent. For data processing, the LabX software version 3.1.1.0 was employed. The Hydranal Water Standard for KF-Oven (Fluka; Cat. No. 34693; Lot No. SZBB010AV) that is expected to contain 5% water was weighed accurately in duplicate at or very close to 200 mg. The crystalline ceftolozane sulfate (15-18 mg) was weighed accurately in triplicate in separate 20 mL Stromboli sample vials. The vials were sealed with aluminum seals and rubber caps. A blank vial was prepared by sealing an empty 20-mL Stromboli vial with the aluminum seal and the rubber cap. The blank vial was used to determine the background moisture in air inside the vial. […] The KF titrator passed the accuracy test as the mean of the duplicate readings for the water standard was between the acceptance range of 4.80-5.20%. Water content results for crystalline ceftolozane sulfate derived from the triplicate weighings were recorded and the mean was reported. […]"}, "[5]": {"assay": "Gravimetric dynamic vapour sorption (moisture sorption/desorption, hygroscopicity)", "format": "physicochemical", "conditions": "25° C.", "procedure": "Gravimetric dynamic vapor sorption data (FIG. 5) was obtained using a SMS DVS Intrinsic moisture sorption analyser, controlled by DVS Intrinsic Control software v1.0.0.30. The sample temperature was maintained at 25° C. by the instrument controls. The humidity was controlled by mixing streams of dry and wet nitrogen. The relative humidity was measured by a calibrated Rotronic probe, located near the sample. The weight change of the sample as a function of % RH was constantly monitored by the microbalance (accuracy ±0.005 mg). Approximately 40 mg of sample was placed in a tared mesh stainless basket under ambient conditions. Weight reference was established at the start of an experiment. Moisture sorption isotherm parameters were described as below: [table] The moisture sorption/desorption property of crystalline cefolozane sulfate form 2 is depicted in FIG. 5. A reversible hysteresis associated with around 23% w/w water between 0% and 90% relative humidity (RH) was observed. The DVS isotherm in FIG. 5 is consistent with the presence of two crystalline forms that can be interconverted as function of relative humidity. The presence of ceftolozane sulfate solid Form 1 and ceftolozane sulfate solid Form 2 in the sample tested to obtain the DVS isotherm in FIG. 5 was confirmed by a variable humidity XRPD (VH-XRPD) measurement, based on the XRPD diffraction angles disclosed for Form 1 and Form 2 of ceftolozane sulfate (as disclosed herein). Referring to DVS the isotherm plot in FIG. 5, the lower curve corresponds to ceftolozane sulfate in solid Form 2, and the upper curve is corresponds to ceftolozane sulfate in solid Form 1. The Y-axis of the DVS plot is change in mass. The X-axis of DVS plot refers to the percent relative humidity (RH) of the sample. Reference point 10 in FIG. 5 is the starting point of Form 2 in DVS experiment. The lower portion of the curve in FIG. 5 was obtained by measuring the change in mass of a ceftolozane sulfate sample in solid Form 2 while increasing relative humidity (RH) in the sample, starting at reference point 10 of the lower curve from reference point 10 (Form 2) and moving toward reference point 20 (Form 1). Based on the data collected, the ceftolozane sulfate in the sample converted from Form 2 to Form 1 when the sample was exposed to conditions between 50% RH (reference point 12) and 70% RH (reference point 15). Referring again to the lower curve in FIG. 5, ceftolozane sulfate in Form 1 is present in the sample from 70% RH to reference point 20, where the sample is ceftolozane sulfate is in crystalline Form 1. Referring to the upper curve in FIG. 5, from reference point 20 to reference point 30, the ceftolozane sulfate in the sample material remains as solid Form 1. From reference point 30 to around 20% RH (reference point 35 on the upper curve), the crystalline form of ceftolozane sulfate in the material transforms from Form 1 to Form 2. As the relative humidity of the sample was dropped below about 20% on the upper curve between reference point 30 and reference point 40 (0% RH), the ceftolozane sulfate became more amorphous, with some residual Form 2 remaining at reference point 40. […] Hygroscopicity of ceftolozane sulfate, Form 2 was assessed using the SMS DVS Intrinsic moisture sorption analyzer equipped with a calibrated Rotronic probe. […]"}, "[6]": {"assay": "Melting point experiment (SRS Optimelt), thermal decomposition", "format": "physicochemical", "conditions": "scan from 100° C. to 400° C.; decomposed prior to melting", "procedure": "Melting point experiment was performed for ceftolozane sulfate form 2 using the SRS Optimelt melting point apparatus. SRS-certified vanillin and phenacetin were used to verify the system performance. The temperature scan from 100° C. to 400° C. was performed for ceftolozane sulfate. The material decomposed prior to melting. The decomposition, as indicated by the distinct change in color, appeared to commence at about 170° C."}, "[7]": {"format": "physicochemical", "procedure": "Thermo Gravimetric Analysis (TGA) experiments were performed on a TA Instruments Discovery Series TGA. The calibration for temperature was carried out using certified indium. Typically, 3-15 mg of a sample was flattened into sealed aluminum pans. Data was acquired for samples with and without a pinhole. For samples with a pinhole, once crimped and sealed, the auto-sampler punched the lid of the sample with its internal puncher right before analysis of the sample. Samples were heated at 20° C./min from 30° C. to 400° C. Dry nitrogen was purged into the system during the experiment at a rate of 50 ml/min. The software used to control the instrument was TRIOS Explorer Software v5.3.0.75. TRIOS software v2.40.1838 or v2.04.04563 was used for data analysis.\nThermogravimetric analysis (TGA) and differential scanning calorimetry (DSC) thermograms are shown in FIG. 3 and FIG. 4, respectively. […] The subsequent exotherm in the thermogram is indicative of decompostion that is consistent with the observation in the melting point experiment."}}, "note": "Structures can show the parent of a compound that is named as a salt."}
{"smiles": "Cn1c(N)c(NC(=O)NCCN)c[n+]1CC1=C(C(=O)O)N2C(=O)[C@@H](NC(=O)/C(=N\\OC(C)(C)C(=O)O)c3nsc(N)n3)[C@H]2SC1", "note": "[Ceftolozane sulfate, 5-amino-4-{[(2-aminoethyl)carbamoyl]amino}-2-{[(6R,7R)-7-({(2Z)-2-(5-amino-1,2,4-thiadiazol-3-yl)-2-[(1-carboxy-1-methylethoxy)imino]acetyl}amino)-2-carboxy-8-oxo-5-thia-1-azabicyclo[4.2.0]oct-2-en-3-yl]methyl}-1-methyl-1H-pyrazolium monosulfate]", "values": [{"measurement": "time the sample solution is stable", "setting": "[1]", "result": 5, "unit": "h"}]}
{"smiles": "Cn1c(N)c(NC(=O)NCCN)c[n+]1CC1=C(C(=O)[O-])N2C(=O)[C@@H](NC(=O)/C(=N\\OC(C)(C)C(=O)O)c3nsc(N)n3)[C@H]2SC1", "note": "[Ceftolozane, (6R,7R)-3-[(5-amino-4-{[(2-aminoethyl)carbamoyl]amino}-1-methyl-1H-pyrazol-2-ium-2-yl)methyl]-7-({(2Z)-2-(5-amino-1,2,4-thiadiazol-3-yl)-2-[(1-carboxy-1-methylethoxy)imino]acetyl}amino)-8-oxo-5-thia-1-azabicyclo[4.2.0]oct-2-ene-2-carboxylate]", "values": [{"measurement": "purity of ceftolozane after 6-day stability test", "setting": "[2]; aqueous ethanol solution, methods of U.S. Pat. No. 7,129,232", "result": "about 68%"}, {"measurement": "purity of ceftolozane at start of 6-day stability test", "setting": "[2]; aqueous ethanol solution, precipitation per U.S. Pat. No. 7,129,232", "result": "about 97%"}, {"measurement": "purity of ceftolozane after 6-day stability test", "setting": "[2]; process using isopropanol (Example 2a), liquid phase", "result": "about 82%"}, {"measurement": "Time to Precipitate", "setting": "[3]; ceftolozane sulfate 149 mg/g (free base 130 mg/g), with excipients", "result": ">24", "unit": "hours^a"}, {"measurement": "Time to Precipitate", "setting": "[3]; ceftolozane sulfate 172 mg/g (free base 150 mg/g), with excipients", "result": ">48", "unit": "h"}, {"measurement": "Time to Precipitate", "setting": "[3]; ceftolozane sulfate 178 mg/g (free base 156 mg/g), last observation at 24 hour", "result": ">24", "unit": "hours^1)"}, {"measurement": "Time to Precipitate", "setting": "[3]; ceftolozane sulfate 189 mg/g (free base 165 mg/g), with excipients", "result": "<18", "unit": "h"}, {"measurement": "Time to Precipitate", "setting": "[3]; ceftolozane sulfate 200 mg/g (free base 174 mg/g), with excipients", "result": 2, "unit": "h"}]}
{"smiles": "Cn1c(N)c(NC(=O)NCCN)c[n+]1CC1=C(C(=O)O)N2C(=O)[C@@H](NC(=O)/C(=N\\OC(C)(C)C(=O)O)c3nsc(N)n3)[C@H]2SC1.O=S(=O)([O-])O", "note": "[Example 1, 7β-[(Z)-2-(5-amino-1,2,4-thiadiazol-3-yl)-2-(1-carboxy-1-methylethoxyimino)acetamido]-3-{3-amino-4-[3-(2-aminoethyl)ureido]-2-methyl-1-pyrazolio}methyl-3-cephem-4-carboxylic acid hydrogen sulfate]", "values": [{"measurement": "water content by weight", "setting": "[4]", "result": "about 26.3%"}]}
{"smiles": "Cn1c(N)c(NC(=O)NCCN)c[n+]1CC1=C(C(=O)O)N2C(=O)[C@@H](NC(=O)/C(=N\\OC(C)(C)C(=O)O)c3nsc(N)n3)[C@H]2SC1", "note": "[ceftolozane sulfate Form 1]", "values": [{"measurement": "relative humidity down to which Form 1 transforms to Form 2", "setting": "[5]; decreasing RH, from reference point 30", "result": "around 20 % RH"}]}
{"smiles": "Cn1c(N)c(NC(=O)NCCN)c[n+]1CC1=C(C(=O)O)N2C(=O)[C@@H](NC(=O)/C(=N\\OC(C)(C)C(=O)O)c3nsc(N)n3)[C@H]2SC1", "note": "[ceftolozane sulfate Form 2]", "values": [{"measurement": "hygroscopicity", "setting": "[5]; RH 0 to 90%", "result": "hygroscopic"}, {"measurement": "total uptake of water", "setting": "[5]; at 90% relative humidity, RH 0 to 90%", "result": 23, "unit": "%"}, {"measurement": "reversible hysteresis, water", "setting": "[5]; between 0% and 90% relative humidity", "result": "around 23 % w/w"}, {"measurement": "relative humidity below which the solid became more amorphous", "setting": "[5]; decreasing RH to 0%, some residual Form 2", "result": "below 20%"}, {"measurement": "temperature at which decomposition commenced (change in color)", "setting": "[6]", "result": "about 170 °C"}, {"measurement": "temperature beyond which degradation likely occurs", "setting": "[7]", "result": "> 181", "unit": "°C"}]}
